We go through one compound from patent US11767330B2, “Citrate salt, pharmaceutical compositions, and methods of making and using the same” (Foghorn Therapeutics Inc., priority 2021, dated 2023).

Data set [1] deals with SYO-1 human biphasic synovial sarcoma tumor cells. Description: SYO-1 xenograft tumor growth (Example 11). Format: in vivo. Conditions: 1 mg/kg, i.p., daily, 3 weeks, NOD SCID mice. As for the experimental part: (§1) Method: NOD SCID mice (Beijing Anikeeper Biotech, Beijing) were inoculated subcutaneously on the right flank with the single cell suspension of SYO-1 human biphasic synovial sarcoma tumor cells (5×106) in 100 μL Dulbecco's Modified Eagle Medium (DMEM) with 10% fetal bovine serum (FBS). The mice were randomized into either control group [10% dimethyl sulfoxide (DMSO), 40% polyethylene glycol (PEG400) and 50% water], or treatment group D1 when the mean tumor size reached about 117 mm^3. Mice were dosed daily through intraperitoneal (i.p.) route over the course of 3 weeks. All dose volumes were adjusted by body weights in terms of mg/kg.

Data set [2] in a line: Tolerability by % body weight change (Example 11). Format: in vivo. The following applies: 1 mg/kg, i.p., daily, 3 weeks. As for the experimental part: as §1

Structures are written as SMILES.

Consider `COc1cc(-c2cn(C)c(=O)c3cnc(N4CCC4)cc23)cc(OC)c1CN1CCC(CN2CCC3(CC2)CN(c2ccc4c(c2)C(=O)N(C2CCC(=O)NC2=O)C4)C3)CC1` (racemic) [Compound D1, 3-[6-(7-[[1-([4-[6-(azetidin-1-yl)-2-methyl-1-oxo-2,7-naphthyridin-4-yl]-2,6-dimethoxyphenyl]methyl)piperidin-4-yl]methyl]-2,7-diazaspiro[3.5]nonan-2-yl)-1-oxo-3H-isoindol-2-yl]piperidine-2,6-dione], for which, in data set [1], the tumor growth entry is “tumor growth inhibition”. Also, in data set [2], the “tolerability based on % body weight change” value is recorded as “well tolerated”.
